Legend:
[1] = Drug distribution in nude mouse spleen xenografted with human 22Rv1 cells at 8.1 MBq,iv measured after 1 hr; format: ADME, tissue-based, CWR22R; settings: in vivo
[2] = Drug distribution in nude mouse large intestine xenografted with human 22Rv1 cells at 8.1 MBq,iv measured after 2 hrs in presence of 2-PMPA; format: ADME, tissue-based, CWR22R; settings: in vivo
[3] = Drug distribution in nude mouse bone xenografted with human 22Rv1 cells at 8.1 MBq,iv measured after 4 hrs; format: ADME, tissue-based, Bone element, CWR22R; settings: in vivo
[4] = Drug distribution in nude mouse small intestine xenografted with human 22Rv1 cells at 8.1 MBq,iv measured after 2 hrs in presence of 2-PMPA; format: ADME, tissue-based, CWR22R; settings: in vivo
[5] = Drug distribution in nude mouse gall bladder xenografted with human 22Rv1 cells at 8.1 MBq,iv measured after 2 hrs in presence of 2-PMPA; format: ADME, tissue-based, CWR22R; settings: in vivo
[6] = Drug distribution in nude mouse gall bladder xenografted with human 22Rv1 cells at 8.1 MBq,iv measured after 4 hrs; format: ADME, tissue-based, CWR22R; settings: in vivo
[7] = Drug distribution in nude mouse liver xenografted with human 22Rv1 cells at 8.1 MBq,iv measured after 2 hrs; format: ADME, tissue-based, CWR22R; settings: in vivo
[8] = Drug uptake in mouse abdomen xenografted with human 22Rv1 cells at 7.4 MBq, iv measured after 2 to 4 hrs by PET imaging analysis; format: ADME, organism-based, CWR22R; settings: in vivo, time 2-4 hrs
[9] = Drug distribution in nude mouse brain xenografted with human 22Rv1 cells at 8.1 MBq,iv measured after 1 hr; format: ADME, tissue-based, CWR22R; settings: in vivo
[10] = Drug distribution in nude mouse muscle tissue xenografted with human 22Rv1 cells at 8.1 MBq,iv measured after 2 hrs; format: ADME, tissue-based, CWR22R; settings: in vivo
[11] = Drug distribution in nude mouse tumor xenografted with human 22Rv1 cells at 8.1 MBq,iv measured after 2 hrs; format: ADME, tissue-based, Neoplasm, CWR22R; settings: in vivo
[12] = Drug distribution in nude mouse spleen xenografted with human 22Rv1 cells at 8.1 MBq,iv measured after 4 hrs; format: ADME, tissue-based, CWR22R; settings: in vivo
[13] = Drug distribution in nude mouse small intestine xenografted with human 22Rv1 cells at 8.1 MBq,iv measured after 4 hrs; format: ADME, tissue-based, CWR22R; settings: in vivo
[14] = Drug distribution in nude mouse blood xenografted with human 22Rv1 cells at 8.1 MBq,iv measured after 2 hrs; format: ADME, tissue-based, CWR22R; settings: in vivo
[15] = Stability of the compound in PBS buffer measured after 4 hrs by radio-HPLC analysis; format: physicochemical
[16] = Drug distribution in nude mouse lung xenografted with human 22Rv1 cells at 8.1 MBq,iv measured after 2 hrs in presence of 2-PMPA; format: ADME, tissue-based, CWR22R; settings: in vivo
[17] = Drug distribution in nude mouse tumor xenografted with human 22Rv1 cells at 8.1 MBq,iv measured after 2 hrs in presence of 2-PMPA; format: ADME, tissue-based, Neoplasm, CWR22R; settings: in vivo
[18] = Drug uptake in human 22Rv1 cells at 3.7 10^-2MBq pretreated with 2-PMPA for 30 mins followed by compound addition and measured after 1 hr relative to control; format: ADME, cell-based; settings: cwr22r
[19] = Drug uptake in human 22Rv1 cells at 3.7 10^-2MBq measured after 4 hrs relative to control; format: ADME, cell-based; settings: cwr22r
[20] = Stability in mouse plasma measured after 4 hrs by radio-HPLC analysis; format: ADME, cell-free
[21] = Drug distribution in nude mouse bone xenografted with human 22Rv1 cells at 8.1 MBq,iv measured after 1 hr; format: ADME, tissue-based, Bone element, CWR22R; settings: in vivo
[22] = Drug distribution in nude mouse lung xenografted with human 22Rv1 cells at 8.1 MBq,iv measured after 4 hrs; format: ADME, tissue-based, CWR22R; settings: in vivo
[23] = Drug distribution in nude mouse kidney xenografted with human 22Rv1 cells at 8.1 MBq,iv measured after 2 hrs in presence of 2-PMPA; format: ADME, tissue-based, CWR22R; settings: in vivo
[24] = Drug distribution in nude mouse spleen xenografted with human 22Rv1 cells at 8.1 MBq,iv measured after 2 hrs in presence of 2-PMPA; format: ADME, tissue-based, CWR22R; settings: in vivo
[25] = Drug distribution in nude mouse brain xenografted with human 22Rv1 cells at 8.1 MBq,iv measured after 2 hrs; format: ADME, tissue-based, CWR22R; settings: in vivo
[26] = Drug distribution in nude mouse small intestine xenografted with human 22Rv1 cells at 8.1 MBq,iv measured after 1 hr; format: ADME, tissue-based, CWR22R; settings: in vivo
[27] = Drug distribution in nude mouse stomach xenografted with human 22Rv1 cells at 8.1 MBq,iv measured after 2 hrs in presence of 2-PMPA; format: ADME, tissue-based, CWR22R; settings: in vivo
[28] = Drug distribution in nude mouse large intestine xenografted with human 22Rv1 cells at 8.1 MBq,iv measured after 2 hrs; format: ADME, tissue-based, CWR22R; settings: in vivo
[29] = Drug distribution in nude mouse blood xenografted with human 22Rv1 cells at 8.1 MBq,iv measured after 1 hr; format: ADME, tissue-based, CWR22R; settings: in vivo
[30] = Drug distribution in nude mouse stomach xenografted with human 22Rv1 cells at 8.1 MBq,iv measured after 4 hrs; format: ADME, tissue-based, CWR22R; settings: in vivo
[31] = Drug distribution in nude mouse small intestine xenografted with human 22Rv1 cells at 8.1 MBq,iv measured after 2 hrs; format: ADME, tissue-based, CWR22R; settings: in vivo
[32] = Drug distribution in nude mouse blood xenografted with human 22Rv1 cells at 8.1 MBq,iv measured after 2 hrs in presence of 2-PMPA; format: ADME, tissue-based, CWR22R; settings: in vivo

Structure (SMILES): COc1cc(C(=O)N[C@@H](CCC(=O)O)C(=O)N[C@@H](CCC(=O)O)C(=O)NCc2ccc(C(=O)N[C@@H](Cc3ccc4ccccc4c3)C(=O)NCCCC[C@H](NC(=O)N[C@@H](CCC(=O)O)C(=O)O)C(=O)O)cc2)ccc1OS(=O)(=O)[18F]
- Drug uptake [1]: 1.85 % ID/g
- Drug uptake [2]: 1.1 % ID/g
- Drug uptake [3]: 3.76 % ID/g
- Drug uptake [4]: 9.02 % ID/g
- Drug uptake [5]: 4.39 % ID/g
- Drug uptake [6]: 1.39 % ID/g
- Drug uptake [7]: 1.79 % ID/g
- Drug uptake [8]: Active
- Drug uptake [9]: 0.15 % ID/g
- Drug uptake [10]: 0.45 % ID/g
- Drug uptake [11]: 4.54 % ID/g
- Drug uptake [12]: 0.97 % ID/g
- Drug uptake [13]: 0.79 % ID/g
- Drug uptake [14]: 2.95 % ID/g
- Stability [15]: Stable
- Drug uptake [16]: 1.58 % ID/g
- Drug uptake [17]: 1.82 % ID/g
- Drug uptake [18]: 0.53%
- Drug uptake [19]: 1.19%
- Stability [20]: Stable
- Drug uptake [21]: 2.11 % ID/g
- Drug uptake [22]: 0.52 % ID/g
- Drug uptake [23]: 4.33 % ID/g
- Drug uptake [24]: 0.83 % ID/g
- Drug uptake [25]: 0.1 % ID/g
- Drug uptake [26]: 2.58 % ID/g
- Drug uptake [27]: 0.57 % ID/g
- Drug uptake [28]: 2.77 % ID/g
- Drug uptake [29]: 6.43 % ID/g
- Drug uptake [30]: 0.44 % ID/g
- Drug uptake [31]: 1.91 % ID/g
- Drug uptake [32]: 3.86 % ID/g
